Consider three molecules from patent US9890407B2, “Method for synthesizing cellulose in vitro” (University of Virginia Patent Foundation, priority 2013, dated 2018).

The target in data set [1] is T1, Rhodobacter sphaeroides BcsA-B complex (cellulose synthase), wild type, BcsA SEQ ID NO: 1, BcsB SEQ ID NO: 3 (Cereibacter sphaeroides, UniProt Q3J125).
T1 construct: pETDuet, E. coli C43; purified, reconstituted in nanodiscs, proteoliposomes or detergent
T1 sequence (Q3J125 1-788): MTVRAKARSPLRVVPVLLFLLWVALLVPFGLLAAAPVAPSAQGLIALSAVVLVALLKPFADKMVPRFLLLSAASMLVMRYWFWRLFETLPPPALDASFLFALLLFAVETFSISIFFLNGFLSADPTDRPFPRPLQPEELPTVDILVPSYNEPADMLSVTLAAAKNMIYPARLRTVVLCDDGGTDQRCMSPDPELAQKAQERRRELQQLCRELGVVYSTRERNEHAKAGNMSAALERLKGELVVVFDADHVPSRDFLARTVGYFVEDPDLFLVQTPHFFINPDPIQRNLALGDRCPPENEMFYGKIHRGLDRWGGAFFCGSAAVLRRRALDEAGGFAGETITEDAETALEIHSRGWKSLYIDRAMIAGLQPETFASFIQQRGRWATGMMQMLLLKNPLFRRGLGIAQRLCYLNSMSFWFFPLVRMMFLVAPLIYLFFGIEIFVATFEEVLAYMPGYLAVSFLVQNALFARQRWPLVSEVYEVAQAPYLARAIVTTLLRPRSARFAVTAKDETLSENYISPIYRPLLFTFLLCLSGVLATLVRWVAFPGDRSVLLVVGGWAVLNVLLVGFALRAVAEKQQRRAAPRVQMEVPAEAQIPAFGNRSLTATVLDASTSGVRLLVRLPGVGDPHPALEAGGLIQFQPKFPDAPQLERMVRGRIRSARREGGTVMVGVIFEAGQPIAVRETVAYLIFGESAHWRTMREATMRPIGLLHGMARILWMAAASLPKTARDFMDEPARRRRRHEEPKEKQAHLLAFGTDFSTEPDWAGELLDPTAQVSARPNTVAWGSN
T1 sequence (Q3J126 21-725 partner): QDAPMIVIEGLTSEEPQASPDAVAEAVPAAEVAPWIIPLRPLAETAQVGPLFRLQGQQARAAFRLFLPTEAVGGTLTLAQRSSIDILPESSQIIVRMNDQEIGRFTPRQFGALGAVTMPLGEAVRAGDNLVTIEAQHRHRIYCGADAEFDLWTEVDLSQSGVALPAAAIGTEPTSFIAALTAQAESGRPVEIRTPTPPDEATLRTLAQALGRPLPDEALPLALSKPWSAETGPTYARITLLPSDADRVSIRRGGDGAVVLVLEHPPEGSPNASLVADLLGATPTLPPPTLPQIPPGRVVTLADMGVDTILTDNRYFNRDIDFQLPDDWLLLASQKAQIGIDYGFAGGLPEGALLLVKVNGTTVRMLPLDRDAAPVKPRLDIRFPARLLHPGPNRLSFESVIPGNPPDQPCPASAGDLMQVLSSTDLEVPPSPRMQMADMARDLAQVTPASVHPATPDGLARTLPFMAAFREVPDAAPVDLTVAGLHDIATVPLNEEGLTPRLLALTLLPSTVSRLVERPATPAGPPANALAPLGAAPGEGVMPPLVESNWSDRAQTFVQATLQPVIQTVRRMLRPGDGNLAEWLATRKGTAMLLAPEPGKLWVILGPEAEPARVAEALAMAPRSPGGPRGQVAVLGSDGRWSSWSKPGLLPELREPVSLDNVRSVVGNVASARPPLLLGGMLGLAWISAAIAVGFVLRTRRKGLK
The data set can be described thus: Enzyme-coupled (PK/LDH, NADH oxidation) cellulose synthase assay, ND-reconstituted BcsA-B. The format is biochemical. The conditions noted are these: titration of UDP-Glc at increasing c-di-GMP concentrations.

Another data set addresses BcsA-Arg580Ala complex. The data set is described as follows: Isothermal titration calorimetry, c-di-GMP into BcsA-R580A complex. The conditions noted are these: BcsA-R580A in 1 mM LFCE14, 25° C.; read-out: Kd of c-di-GMP (ITC). The format is binding, Rhodobacter sphaeroides. Here is the method:
(§1) FIG. 23A-23B (also referred to as Example 2, Supplementary FIG. 5): Cellulose synthesis activity of BcsA mutants and c-di-GMP binding. (FIG. 23A) Cellulose synthesis assays were performed in inverted membrane vesicles and proteoliposomes as described in the Experimental Procedures. The amount of ^3H-glucose-labeled cellulose produced by each mutant is quantified and graphed. 1 μl of IMV's were used for each mutant. For PL assays, the protein concentrations were matched based on UV absorbance and SDS-PAGE followed by Coomassie staining. The apparent lower activity of the R580A mutant may be due to differences in the relative orientation of the enzyme in the PLs or its overall stability. +/−: Experiments performed in the presence and absence of 30 μM c-di-GMP. All data represent the means±SD for 3 technical replicates. (FIG. 23B) Binding of c-di-GMP to the BcsA-R580A mutant. The ability of the R580A mutant to bind c-di-GMP was assessed using ITC.
(§2) The protein was purified in 1 mM LFCE14 as described above. Measurements were carried out at 25° C. in a MicroCal iTC200 system (GE Healthcare) with 250 μl of BcsA-B in the cell at 9.3 μM for WT and 11 μM for the BcsA-Arg580Ala complex and 400 μM c-di-GMP in the syringe. An initial 0.5 μl injection was followed by 39 1 μl injections spaced 180 s apart with stirring at 700 rpm. The data were fit using Origin 7.0 as provided by the manufacturer.
For orientation: ITC needs no label: the signal is the heat of the interaction.

Data set [2] addresses T2, Rhodobacter sphaeroides BcsA-B complex, BcsA variant R580A (Arg580Ala; parent BcsA SEQ ID NO: 1), BcsB SEQ ID NO: 3 (Cereibacter sphaeroides, UniProt Q3J125, R580A). The format is biochemical. As to conditions: c-di-GMP more than 50-fold above its dissociation constant.
Data set [3] concerns the target T2, Rhodobacter sphaeroides BcsA-B complex, BcsA variant R580A (Arg580Ala; parent BcsA SEQ ID NO: 1), BcsB SEQ ID NO: 3. The data set can be described thus: Isothermal titration calorimetry, c-di-GMP binding to the BcsA-R580A mutant. As for the experimental part: as §1, §2
The target of data set [4] is T3, Rhodobacter sphaeroides BcsA-B complex, wild type (WT), BcsA SEQ ID NO: 1, BcsB SEQ ID NO: 3 (Cereibacter sphaeroides, UniProt Q3J125).
T3 construct: E. coli; purified in LFCE14 detergent for ITC
T3 sequence (Q3J125 1-788): T1 sequence (Q3J125 1-788)
T3 sequence (Q3J126 21-725 partner): T1 sequence (Q3J126 21-725 partner)
The data set can be described thus: Isothermal titration calorimetry, c-di-GMP binding to wild type BcsA-B. The conditions noted are these: ITC, 1 mM LFCE14, 25° C. As for the experimental part: as §1, §2

Another data set has as its system cellulose synthesis. The format is biochemical, Rhodobacter sphaeroides.

Numbering of substitutions follows the chain as printed. Names may count otherwise.

T2 sequence (Q3J125 entry or part of it R580A, one chain of several): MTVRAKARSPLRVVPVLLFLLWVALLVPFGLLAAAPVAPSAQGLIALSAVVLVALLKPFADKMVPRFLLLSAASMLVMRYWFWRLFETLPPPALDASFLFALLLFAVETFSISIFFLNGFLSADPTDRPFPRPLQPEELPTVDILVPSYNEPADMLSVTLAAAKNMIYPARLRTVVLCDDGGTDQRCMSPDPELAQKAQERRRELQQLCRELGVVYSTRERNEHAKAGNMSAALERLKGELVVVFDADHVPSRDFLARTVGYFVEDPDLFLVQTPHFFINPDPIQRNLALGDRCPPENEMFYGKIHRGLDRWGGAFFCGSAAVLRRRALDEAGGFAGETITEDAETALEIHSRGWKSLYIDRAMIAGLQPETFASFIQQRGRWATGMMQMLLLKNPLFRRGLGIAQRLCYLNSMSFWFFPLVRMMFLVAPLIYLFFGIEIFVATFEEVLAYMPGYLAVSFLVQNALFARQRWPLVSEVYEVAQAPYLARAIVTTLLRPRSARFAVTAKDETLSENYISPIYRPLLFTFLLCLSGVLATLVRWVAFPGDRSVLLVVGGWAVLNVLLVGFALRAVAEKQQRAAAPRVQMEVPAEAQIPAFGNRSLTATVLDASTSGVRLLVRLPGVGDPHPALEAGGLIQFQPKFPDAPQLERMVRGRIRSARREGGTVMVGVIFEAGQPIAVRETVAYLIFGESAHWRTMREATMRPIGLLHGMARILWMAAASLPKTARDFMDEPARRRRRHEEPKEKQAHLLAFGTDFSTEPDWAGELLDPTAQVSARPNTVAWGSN

For the molecule `Nc1nc2c(ncn2[C@@H]2O[C@@H]3COP(=O)(O)O[C@H]4[C@@H](O)[C@H](n5cnc6c(=O)[nH]c(N)nc65)O[C@@H]4COP(=O)(O)O[C@H]3[C@H]2O)c(=O)[nH]1` [c-di-GMP, cyclic dimeric guanosine monophosphate], in data set [1], the “effect of c-di-GMP on BcsA's apparent affinity for UDP-Glc” value is given as “does not alter BcsA's apparent affinity for UDP-Glc”. Moreover, the Kd at BcsA-Arg580Ala complex is 1600 nM; in data set [3], 1600 nM; in data set [4], 400 nM. In data set [2], the “stimulation of cellulose biosynthesis by c-di-GMP” value is “no further stimulation”. Besides, the “stoichiometry of c-di-GMP binding” value in data set [3] (ITC, 1 mM LFCE14, 25° C.) is ~0.5.

B1: E371A (protein)
chain: MGTVRAKARSPLRVVPVLLFLLWVALLVPFGLLAAAPVAPSAQGLIALSAVVLVALLKPFADKMVPRFLLLSAASMLVMRYWFWRLFETLPPPALDASFLFALLLFAVETFSISIFFLNGFLSADPTDRPFPRPLQPEELPTVDILVPSYNEPADMLSVTLAAAKNMIYPARLRTVVLCDDGGTDQRCMSPDPELAQKAQERRRELQQLCRELGVVYSTRERNEHAKAGNMSAALERLKGELVVVFDADHVPSRDFLARTVGYFVEDPDLFLVQTPHFFINPDPIQRNLALGDRCPPENEMFYGKIHRGLDRWGGAFFCGSAAVLRRRALDEAGGFAGETITEDAETALEIHSRGWKSLYIDRAMIAGLQPATFASFIQQRGRWATGMMQMLLLKNPLFRRGLGIAQRLCYLNSMSFWFFPLVRMMFLVAPLIYLFFGIEIFVATFEEVLAYMPGYLAVSFLVQNALFARQRWPLVSEVYEVAQAPYLARAIVTTLLRPRSARFAVTAKDETLSENYISPIYRPLLFTFLLCLSGVLATLVRWVAFPGDRSVLLVVGGWAVLNVLLVGFALRAVAEKQQRRAAPRVQMEVPAEAQIPAFGNRSLTATVLDASTSGVRLLVRLPGVGDPHPALEAGGLIQFQPKFPDAPQLERMVRGRIRSARREGGTVMVGVIFEAGQPIAVRETVAYLIFGESAHWRTMREATMRPIGLLHGMARILWMAAASLPKTARDFMDEPARRRRRHEEPKEKQAHLLAFGTDFSTEPDWAGELLDPTAQVSARPNTVAWGSNHHHHHHKLHHHHHH
In the case of B1, the “increase of catalytic activity in the absence of c-di-GMP compared to wild type enzyme” value in the data set with cellulose synthesis (no c-di-GMP, IMVs and PLs) is listed as “approximately 6 fold”.

B2: R580A (protein)
chain: B1 chain with A372E, R581A
In the case of B2, in the data set on cellulose synthesis (formation of cellulose or UDP, with and without 30 μM c-di-GMP), the “dependence of catalytic activity on c-di-GMP” value is listed as “constitutively active”.

The Kd is a measure of binding affinity in units of concentration.
